Laboratory results taken from the NIST ThermoML archive (doi:10.1016/j.jct.2013.08.034).

Assay: xn = mol fraction of the nth substance listed
Settings: 101 kPa, Liquid; for electrical conductivity: Conductivity Meter Jenco 3107; for viscosity: Cone and plate viscometry; for mass density: Vibrating tube method

CC1COC(=O)O1 (centres undefined) [4-methyl-1,3-dioxolan-2-one] + CCCC[n+]1ccn(C)c1.O=S(=O)([N-]S(=O)(=O)C(F)(F)F)C(F)(F)F
Settings | electrical conductivity [S/m] | mass density [kg/m3] | viscosity [mPa·s]
293.15 K, x2 = 0 | – | – | 2.86
293.15 K, x2 = 0.0146 | – | 1216.01 | –
293.15 K, x2 = 0.0296 | – | 1226.83 | –
293.15 K, x2 = 0.0453 | – | 1237.53 | –
293.15 K, x2 = 0.0502 | 0.792 | – | –
293.15 K, x2 = 0.0616 | – | 1247.91 | –
293.15 K, x2 = 0.0732 | – | 1254.92 | –
293.15 K, x2 = 0.0997 | – | 1269.69 | –
293.15 K, x2 = 0.1 | – | – | 4.74
293.15 K, x2 = 0.1004 | 0.92 | – | –
293.15 K, x2 = 0.2001 | 1.08 | – | –
293.15 K, x2 = 0.2002 | – | – | 7.21
293.15 K, x2 = 0.2004 | – | 1314.48 | –
293.15 K, x2 = 0.3002 | 0.938 | – | –
293.15 K, x2 = 0.3007 | – | – | 10.74
293.15 K, x2 = 0.3081 | – | 1348.61 | –
293.15 K, x2 = 0.3998 | – | – | 14.73
293.15 K, x2 = 0.4004 | – | 1370.63 | –
293.15 K, x2 = 0.4005 | 0.814 | – | –
293.15 K, x2 = 0.5004 | – | – | 20.17
293.15 K, x2 = 0.5007 | 0.752 | – | –
293.15 K, x2 = 0.5021 | – | 1389.4 | –
293.15 K, x2 = 0.5839 | – | 1401.58 | –
293.15 K, x2 = 0.6002 | – | – | 26.37
293.15 K, x2 = 0.6003 | 0.669 | – | –
293.15 K, x2 = 0.6902 | – | 1414.42 | –
293.15 K, x2 = 0.6979 | – | – | 33.56
293.15 K, x2 = 0.6989 | 0.578 | – | –
293.15 K, x2 = 0.7989 | – | 1424.99 | –
293.15 K, x2 = 0.8001 | 0.497 | – | –
293.15 K, x2 = 0.8015 | – | – | 42.09
293.15 K, x2 = 0.8959 | 0.422 | – | 50.34
293.15 K, x2 = 0.898 | – | 1432.81 | –
298.15 K, x2 = 0 | – | – | 2.65
298.15 K, x2 = 0.0146 | – | 1210.26 | –
298.15 K, x2 = 0.0296 | – | 1221.14 | –
298.15 K, x2 = 0.0453 | – | 1231.8 | –
298.15 K, x2 = 0.0502 | 0.899 | – | –
298.15 K, x2 = 0.0616 | – | 1242.22 | –
298.15 K, x2 = 0.0732 | – | 1249.22 | –
298.15 K, x2 = 0.0997 | – | 1264.08 | –
298.15 K, x2 = 0.1 | – | – | 4.29
298.15 K, x2 = 0.1004 | 1.02 | – | –
298.15 K, x2 = 0.2001 | 1.21 | – | –
298.15 K, x2 = 0.2002 | – | – | 6.43
298.15 K, x2 = 0.2004 | – | 1308.99 | –
298.15 K, x2 = 0.3002 | 1.06 | – | –
298.15 K, x2 = 0.3007 | – | – | 9.27
298.15 K, x2 = 0.3081 | – | 1343.32 | –
298.15 K, x2 = 0.3998 | – | – | 12.6
298.15 K, x2 = 0.4004 | – | 1365.43 | –
298.15 K, x2 = 0.4005 | 0.924 | – | –
298.15 K, x2 = 0.5004 | – | – | 17.01
298.15 K, x2 = 0.5007 | 0.855 | – | –
298.15 K, x2 = 0.5021 | – | 1384.34 | –
298.15 K, x2 = 0.5839 | – | 1396.54 | –
298.15 K, x2 = 0.6002 | – | – | 21.71
298.15 K, x2 = 0.6003 | 0.761 | – | –
298.15 K, x2 = 0.6902 | – | 1409.46 | –
298.15 K, x2 = 0.6979 | – | – | 27.64
298.15 K, x2 = 0.6989 | 0.667 | – | –
298.15 K, x2 = 0.7989 | – | 1420.01 | –
298.15 K, x2 = 0.8001 | 0.581 | – | –
298.15 K, x2 = 0.8015 | – | – | 34.76
298.15 K, x2 = 0.8959 | 0.49 | – | 40.95
298.15 K, x2 = 0.898 | – | 1427.78 | –
303.15 K, x2 = 0 | – | – | 2.44
303.15 K, x2 = 0.0146 | – | 1205.11 | –
303.15 K, x2 = 0.0296 | – | 1216.01 | –
303.15 K, x2 = 0.0453 | – | 1226.7 | –
303.15 K, x2 = 0.0502 | 0.963 | – | –
303.15 K, x2 = 0.0616 | – | 1237.2 | –
303.15 K, x2 = 0.0732 | – | 1244.2 | –
303.15 K, x2 = 0.0997 | – | 1259.1 | –
303.15 K, x2 = 0.1 | – | – | 3.84
303.15 K, x2 = 0.1004 | 1.16 | – | –
303.15 K, x2 = 0.2001 | 1.35 | – | –
303.15 K, x2 = 0.2002 | – | – | 5.81
303.15 K, x2 = 0.2004 | – | 1303.96 | –
303.15 K, x2 = 0.3002 | 1.21 | – | –
303.15 K, x2 = 0.3007 | – | – | 8.07
303.15 K, x2 = 0.3081 | – | 1338.4 | –
303.15 K, x2 = 0.3998 | – | – | 10.8
303.15 K, x2 = 0.4004 | – | 1360.5 | –
303.15 K, x2 = 0.4005 | 1.07 | – | –
303.15 K, x2 = 0.5004 | – | – | 14.41
303.15 K, x2 = 0.5007 | 0.963 | – | –
303.15 K, x2 = 0.5021 | – | 1379.5 | –
303.15 K, x2 = 0.5839 | – | 1391.7 | –
303.15 K, x2 = 0.6002 | – | – | 18.4
303.15 K, x2 = 0.6003 | 0.86 | – | –
303.15 K, x2 = 0.6902 | – | 1404.6 | –
303.15 K, x2 = 0.6979 | – | – | 22.9
303.15 K, x2 = 0.6989 | 0.764 | – | –
303.15 K, x2 = 0.7989 | – | 1415.1 | –
303.15 K, x2 = 0.8001 | 0.665 | – | –
303.15 K, x2 = 0.8015 | – | – | 28.81
303.15 K, x2 = 0.8959 | 0.563 | – | 33.59
303.15 K, x2 = 0.898 | – | 1422.88 | –
308.15 K, x2 = 0 | – | – | 2.23
308.15 K, x2 = 0.0146 | – | 1199.79 | –
308.15 K, x2 = 0.0296 | – | 1210.69 | –
308.15 K, x2 = 0.0453 | – | 1221.41 | –
308.15 K, x2 = 0.0502 | 1.05 | – | –
308.15 K, x2 = 0.0616 | – | 1231.88 | –
308.15 K, x2 = 0.0732 | – | 1238.89 | –
308.15 K, x2 = 0.0997 | – | 1253.78 | –
308.15 K, x2 = 0.1 | – | – | 3.51
308.15 K, x2 = 0.1004 | 1.3 | – | –
308.15 K, x2 = 0.2001 | 1.51 | – | –
308.15 K, x2 = 0.2002 | – | – | 5.1
308.15 K, x2 = 0.2004 | – | 1298.88 | –
308.15 K, x2 = 0.3002 | 1.36 | – | –
308.15 K, x2 = 0.3007 | – | – | 7.11
308.15 K, x2 = 0.3081 | – | 1333.39 | –
308.15 K, x2 = 0.3998 | – | – | 9.42
308.15 K, x2 = 0.4004 | – | 1355.48 | –
308.15 K, x2 = 0.4005 | 1.22 | – | –
308.15 K, x2 = 0.5004 | – | – | 12.36
308.15 K, x2 = 0.5007 | 1.1 | – | –
308.15 K, x2 = 0.5021 | – | 1374.5 | –
308.15 K, x2 = 0.5839 | – | 1386.81 | –
308.15 K, x2 = 0.6002 | – | – | 15.75
308.15 K, x2 = 0.6003 | 0.972 | – | –
308.15 K, x2 = 0.6902 | – | 1399.67 | –
308.15 K, x2 = 0.6979 | – | – | 19.44
308.15 K, x2 = 0.6989 | 0.859 | – | –
308.15 K, x2 = 0.8001 | 0.755 | – | –
308.15 K, x2 = 0.8015 | – | – | 24.1
308.15 K, x2 = 0.8959 | 0.642 | – | 27.95
